# Measurements from PMC3006138, “Fexinidazole – A New Oral Nitroimidazole Drug Candidate Entering Clinical Development for the Treatment of Sleeping Sickness” (PLoS Neglected Tropical Diseases, 2010).
# Where “and” joins values, the source holds several entries; their conditions need not be identical. Identical values can stand only once. Like-named read-outs stand apart in the source and are kept apart here.
# Legend:
# [1] = Half-life after oral treatment across species; format: in vivo; conditions: mouse, rat, dog, plasma, mice, rats and dogs
# [2] = Mouse brain concentrations; format: in vivo; conditions: for concentration at 5 min / concentration at 15 min / concentration at 30 min / concentration at 60 min / Kp at 5 min / Kp at 15 min / Kp at 30 min / Kp at 60 min: female, NMRI, mouse; for Kp at 5 min / Kp at 15 min / Kp at 30 min / Kp at 60 min: read-out: Mean plasma:brain ratio (plasma = 1.00)
# Protocol: Following sacrifice, the cranium of mice was opened and the brain removed. Excess blood was washed from the brain with distilled water and any excess fluid blotted on absorbent paper. The brain was then snap frozen using liquid nitrogen and placed into a suitably labelled container and stored at approximately −70°C, pending analysis. Brains were homogenized and extracted samples were prepared appropriately for analysis via liquid chromatography-mass spectrometry (LC-MS).
# BioDynamics Study No: DND/01
# Two groups of female mice were dosed as follows:
# Number Treatment Dose (mg/kg) Route
# All doses are expressed as free base
# Intravenous doses were administered into a lateral tail vein using an appropriately sized syringe and 25G needle and the oral formulation by oral gavage using a polypropylene gavage tube. All doses were given as a single bolus dose at a constant dose volume of 10.0 mL/kg.
# 1.6 Blood sample collection
# At each sampling time point, three animals in each treatment group were deeply anaesthetised using isoflurane and blood samples (approximately 1 mL) taken into individual heparinised tubes by cardiac puncture, following which the animals were killed by cervical fracture. Samples were collected at the following times post-dose:
# Following collection, the blood samples were centrifuged (approximately 10000 g, 2 min at 4 °C) and the plasma retained as one aliquot at approximately -70°C prior to analysis of test material concentrations at BioDynamics by LC-MS/MS.
# 1.7 Collection of terminal brain samples
# Following collection of the terminal blood sample the cranium of each mouse was carefully opened and the brain removed. Excess blood was washed from the brain with distilled water and any excess fluid blotted on absorbent paper. The brain was then snap frozen using liquid nitrogen and placed into a suitably labelled container and stored frozen at approximately -70°C pending analysis.
# All of the plasma samples together with the brains from the 15 minute time point were analysed for concentrations of the test material and its sulfone and sulfoxide metabolites. In addition the brains from the 5 and 30 minute time points for the intravenously treated and the 30 and 60 minute time points for the orally treated animals were analysed for concentrations of Fexinidazole and its sulfone and sulfoxide metabolites using an LC-MS/MS method developed at BioDynamics.
# All samples were treated as temperature sensitive. Blood samples were collected onto wet ice, followed by centrifugation at 4 °C. Plasma and brain samples were snap frozen on dry ice (plasma) or liquid nitrogen (brains) prior to long term storage at less than -70 °C pending analysis.
# [3] = test system: T. b. gambiense (STIB 930); assay: In vitro trypanocidal assay (Alamar Blue); format: cell-based, Trypanosoma brucei gambiense; conditions: Trypanosoma brucei, 72 h; read-out: IC50
# Protocol: Parasites were cultured with or without the test article at a concentration of 3×10^4/mL in Minimal Essential Medium, according to Baltz et al., with the following modifications: 0.2 mM 2-mercaptoethanol, 1 mM Na-pyruvate, 0.5 mM hypoxanthine and 15% heat inactivated horse serum at 37°C in 5% CO2 in 96-well microtitre plates for 72 h. 10 µL of Alamar Blue was added for the final 3 h to determine viability. The assay was assessed by reading the fluorescence in each well at an excitation wavelength of 536 nm and at an emission wavelength of 588 nm. The IC50 values were calculated from the sigmoidal inhibition curves. For cytotoxicity, 4×10^4/mL L-6 rat skeletal myoblast cells were used, and incubations and assessments carried out as above.
# [4] = brain homogenate, intravenous, 1 mg/kg, fexinidazole 1 mg/kg iv, 5 min, read-out: Brain homogenate concentration
# [5] = brain homogenate, intravenous, 1 mg/kg, fexinidazole 1 mg/kg iv, 30 min, read-out: Brain homogenate concentration
# [6] = brain homogenate, oral, 25 mg/kg, fexinidazole 25 mg/kg po, 60 min, read-out: Brain homogenate concentration
# [7] = brain, intravenous, 1 mg/kg, fexinidazole 1 mg/kg iv, 5 min, read-out: Brain concentration
# [8] = brain, intravenous, 1 mg/kg, fexinidazole 1 mg/kg iv, 30 min, read-out: Brain concentration
# [9] = brain, oral, 25 mg/kg, fexinidazole 25 mg/kg po, 30 min, read-out: Brain concentration
# [10] = brain, oral, 25 mg/kg, fexinidazole 25 mg/kg po, 30 min, read-out: Brain homogenate concentration
# [11] = brain, oral, 25 mg/kg, fexinidazole 25 mg/kg po, 60 min, read-out: Brain concentration
# [12] = fexinidazole 25 mg/kg po, 30 min
# [13] = fexinidazole 25 mg/kg po, 60 min
SMILES,half-life [1] [h],"concentration at 5 min [2, 4] [ng/mL]","concentration at 30 min [2, 5] [ng/mL]","concentration at 60 min [2, 6] [ng/mL]","concentration at 5 min [2, 7] [ng/g]","concentration at 30 min [2, 8] [ng/g]","concentration at 30 min [2, 9] [ng/g]","concentration at 30 min [2, 10] [ng/mL]","concentration at 60 min [2, 11] [ng/g]","Kp at 5 min ([2]; brain, iv 1 mg/kg, 5 min)","Kp at 30 min ([2]; brain, iv 1 mg/kg, 30 min)","Kp at 30 min ([2]; brain, po 25 mg/kg, 30 min)","Kp at 60 min ([2]; brain, po 25 mg/kg, 60 min)","Brain concentration [2, 12] [ng/g]","Brain concentration [2, 13] [ng/g]",IC50 [3],further results
"CSc1ccc(OCc2ncc([N+](=O)[O-])n2C)cc1 [Fexinidazole, 1-methyl-2-((p-(methylthio)phenoxy)methyl)-5-nitroimidazole]",1 to 3,92.5,12.1,254,277,36.2,800,266,763,0.56,1.03,1.16,1.22,800 ± 92.6,763 ± 90.7,0.16 µg/mL to 0.36 µg/mL and 580 nM to 1.29 µM,"concentration at 15 min ([2]; brain homogenate, intravenous, 1 mg/kg, fexinidazole 1 mg/kg iv, 15 min, read-out: Brain homogenate concentration): 21.3 ng/mL; concentration at 15 min ([2]; brain homogenate, oral, 25 mg/kg, fexinidazole 25 mg/kg po, 15 min, read-out: Brain homogenate concentration): 379 ng/mL; concentration at 15 min ([2]; brain, intravenous, 1 mg/kg, fexinidazole 1 mg/kg iv, 15 min, read-out: Brain concentration): 63.8 ng/g; concentration at 15 min ([2]; brain, oral, 25 mg/kg, fexinidazole 25 mg/kg po, 15 min, read-out: Brain concentration): 1140 ng/g; Kp at 15 min ([2]; brain, iv 1 mg/kg, 15 min): 0.76; Kp at 15 min ([2]; brain, po 25 mg/kg, 15 min): 0.76; Brain concentration ([2]; fexinidazole 25 mg/kg po, 15 min): 1136 ± 54.1 ng/g"
Cn1c([N+](=O)[O-])cnc1COc1ccc(S(C)(=O)=O)cc1 [Fexinidazole sulfone],≤ 24,–,–,394,–,–,468,156,1180,0,0,0.05,0.06,469 ± 222,1183 ± 322,0.16 µg/mL to 0.39 µg/mL and 480 nM to 1.25 µM,"Brain homogenate concentration ([2]; fexinidazole 1 mg/kg iv, 5 min): BLQ; Brain homogenate concentration ([2]; fexinidazole 1 mg/kg iv, 30 min): BLQ"
Cn1c([N+](=O)[O-])cnc1COc1ccc([S+](C)[O-])cc1 (centres unmarked) [Fexinidazole sulfoxide],2 to 7,39.9,57.6,1620,120,173,3310,1100,4870,0.045,0.064,0.078,0.12,3315 ± 1611,4873 ± 2335,0.18 µg/mL to 0.36 µg/mL and 610 nM to 1.22 µM,–
